Source: patent publication US20250368629A1, “FLAVONOID COMPOUNDS AND METHODS AND MATERIALS FOR USING FLAVONOID COMPOUNDS TO TREAT FIBROTIC CONDITIONS” (Mayo Foundation for Medical Education and Research, priority 2022, published 2025)

Assays:
~400 kinases = assay: Kinome screen (Reaction Biology wild-type kinase panel, ATP competition assay); type: biochemical; conditions: 1 μM, Z-scores
Description: FIG. 4A. F-4N was sent to Reaction Biology to be tested against their entire wild-type kinase panel. 1 μM F-4N was tested in an ATP competition assay against 420+ kinases. Z-scores were calculated to identify true hits over noise.
Kinome screening was used to test F-4N (1 μM) against ˜400 kinases.

[1] = tested on: sections of lung tissue from IPF patient transplant lungs; assay: IPF patient-derived organotypic ex vivo culture; type: cell-based, human; conditions: 3 μM, 4 days ex vivo, N=3 patient samples
Description: An IPF patient-derived organotypic ex vivo culture was used to determine efficacy of F-4N. Sections of lung tissue (about […]) were cut from IPF patient transplant lungs and cultured for 4 days ex vivo with DMSO (0.1%) or F-4N (3 μM). Lung tissue slices were collected, RNA was isolated, and qPCR analysis was performed (FIG. 31). Media was also collected for ELISA analysis for IL-6 (FIG. 31B). N=3 patient samples.

[2] = Stability in mouse plasma; type: in vitro ADME
Description: The stability of F-4N in plasma was assessed (FIG. 27). Compounds were incubated with human or mouse plasma. The percent of F-4N recovered was analyzed by LC-MS. Warfarin was used as a control for stable compound, and propantheline was used as a control for an unstable compound. Analysis was performed by Cyprotex (Framingham, MA).

[3] = Microsomal stability, mouse liver derived microsomes; type: in vitro ADME
Description: The microsomal stability of F-4N was also assessed (FIG. 28). Compounds were incubated with human or mouse liver derived microsomes. The percent of F-4N recovered was analyzed by LC-MS. Verapamil was used as a control for a rapidly degraded compound. Analysis was performed by Cyprotex (Framingham, MA).

Mdr2-/- mice = assay: Mdr2-/- mouse model of PSC with established liver fibrosis, oral treatment; type: in vivo; conditions: 4 weeks
Excerpt: 20 Mdr2^−/− mice (10 males, 10 females) approximately 7 months old with established liver fibrosis were assigned to receive either F-4N or vehicle ([…]) for 4 weeks. At the end of treatment, mice were sacrificed, and livers were collected to assess liver inflammation and fibrosis.

mouse model of NASH = assay: Mouse model of NASH (CD-HFD); type: in vivo; conditions: 10 mg/kg daily i.p. for 2 weeks
Description: FIGS. 20A-20D show the efficacy of F-4N in a mouse model of NASH. FIG. 20A) Study design and weight changes of mice treated with 10 mg/kg F-4N daily i.p. for 2 weeks. FIG. 20B). Representative H&E and Sirius Red liver histology. FIG. 20C) Objective automated quantification of Sirius Red staining. FIG. 20D) Liver weight and colon weight changes. N=5 chow diet, N=10 holine deficient-high fat diet (CD-HFD) vehicle, N=10 CD-HFD+F-4N.
Mice in a mouse model of NASH were treated with 10 mg/kg F-4N daily i.p. for 2 weeks (FIG. 20A). Livers from treated mice were analyzed by H&E and Sirius Red staining (FIG. 20B). Sirius Red staining was quantified (FIG. 20C). Liver weight and colon weight changes were also assessed (FIG. 20D).

[4] = tested on: low passage proliferating fibroblasts; assay: Apoptosis of low passage proliferating lung fibroblasts (cleaved caspase-3, DAPI); type: cell-based, human; conditions: low passage proliferating fibroblasts from the same donor, 96 hours, 6-point dose-response, N=3
Description: Human adult lung fibroblasts were replicatively passaged until senescence (confirmed by RNA and senescence associated beta galactosidase staining). In a parallel experiment, low passage proliferating fibroblasts from the same donor were compared. Cells were plated into 96-well plates and treated with the indicated compound (6-point dose-response) and incubated for 96 hours. Cells were then fixed using 4% PFA, permeabilized using 0.25% triton x-100, and nuclear stained using a primary antibody for cleaved caspase-3, secondary fluorescence conjugated antibody, and DAPI. Cells were then imaged using a 4× objective on a Cytation5 microscope and cell counts were quantified using automated software (Biotek Gen5). Data shown are the EC50 values calculated for each compounds efficacy to induce apoptosis in senescence vs. proliferating lung fibroblasts, from the calculated dose-response curves, N=3 independent experiments.

DRAK1 = molecular target: T1, DRAK1 (Homo sapiens, UniProt Q9UEE5); assay: DRAK1 kinase activity assay (radiolabeled ATP, Reaction Biology); type: biochemical; conditions: FIG. 30
T1 construct: purchased Reaction Biology
T1 sequence (Q9UEE5 1-414): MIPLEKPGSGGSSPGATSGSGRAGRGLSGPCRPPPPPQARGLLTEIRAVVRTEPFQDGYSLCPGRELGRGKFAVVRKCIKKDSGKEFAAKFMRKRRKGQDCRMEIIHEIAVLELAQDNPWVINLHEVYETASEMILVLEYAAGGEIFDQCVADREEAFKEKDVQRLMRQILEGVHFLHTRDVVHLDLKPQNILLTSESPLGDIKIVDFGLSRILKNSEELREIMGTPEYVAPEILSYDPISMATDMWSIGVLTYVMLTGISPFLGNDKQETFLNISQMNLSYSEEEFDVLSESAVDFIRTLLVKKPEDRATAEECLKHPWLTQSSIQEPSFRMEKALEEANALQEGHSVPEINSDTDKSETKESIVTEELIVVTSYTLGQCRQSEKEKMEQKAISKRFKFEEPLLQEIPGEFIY
Description: DRAK1 kinase activity was also assessed. […] A DRAK1 kinase activity was performed by Reaction Biology. DRAK1 kinase activity was measured and plotted (FIG. 30).

STK17A = molecular target: T2, STK17A (Homo sapiens, UniProt Q9UEE5); assay: Kinase dose response curve on STK17A; type: biochemical; conditions: FIG. 4A, read-out: half maximal inhibitory concentration (IC50) on STK17A
T2 construct: purchased Reaction Biology
T2 sequence (Q9UEE5 1-414): T1 sequence (Q9UEE5 1-414)
Description: FIGS. 4A-4B show mechanism of action of F-4N. […] Dose response curves on STK17A and STK17B show half maximal inhibitory concentration (IC50) values of ˜200 nM. […] FIG. 4A. F-4N was sent to Reaction Biology to be tested against their entire wild-type kinase panel. 1 μM F-4N was tested in an ATP competition assay against 420+ kinases. Z-scores were calculated to identify true hits over noise.

**Q.** Which results are given for O=c1c(O)c(-c2ccc(OCc3ccncc3)cc2)oc2ccccc12 [F—4N]?
**A.** Putative targets identified by kinome screening (~400 kinases): STK17A (also known as DRAK1), STK17B (also known as DRAK2), and MYLK4, AURKB, FLT3, and KIT; expression of fibrotic markers (qPCR) [1]: reduced expression; expression of mature alveolar epithelial cell markers (qPCR) [1]: enhanced expression; stability in plasma (percent recovered, LC-MS) [2]: stable; microsomal stability: half-life and clearance rate [3]: in line with many clinically approved orally administered drugs; expression of fibrogenic genes in the liver (Mdr2-/- mice; oral delivery): reduced expression; liver fibrosis, especially parenchymal (bridging) fibrosis (Mdr2-/- mice; oral delivery): Improvement of liver fibrosis; tissue markers of liver inflammation and senescence (Mdr2-/- mice; oral delivery): Significant reduction; liver mass (Mdr2-/- mice; oral treatment): reduced; efficacy in NASH model (histology, Sirius Red, liver weight, liver function, triglyceride, hydroxyproline) (mouse model of NASH): effective to treat NASH; liver expression of profibrotic genes, inflammatory genes, and Stk17b (qPCR) (mouse model of NASH): effectively reduced expression; Proliferating fibroblast apoptosis EC50 [4]: inactive; DRAK1 kinase activity (DRAK1): can inhibit; IC50 (STK17A): ~200 nM
